Test results taken from PMC9072872, “Structure-based design of nucleoside-derived analogues as sulfotransferase inhibitors” (RSC Advances, 2019).

Key:
TPST1 = biological target: T1, TPST1 (Homo sapiens, UniProt O60507); assay: Microfluidic mobility shift sulfation assay, TPST1 (fluorescent CC4-tide substrate); assay type: biochemical; details: for IC50: read-out: IC50 against TPST1
T1 construct: Human TPST1 (residues Lys43-Leu360) enzyme was purified as a recombinant protein; made in house
T1 sequence (O60507 43-360): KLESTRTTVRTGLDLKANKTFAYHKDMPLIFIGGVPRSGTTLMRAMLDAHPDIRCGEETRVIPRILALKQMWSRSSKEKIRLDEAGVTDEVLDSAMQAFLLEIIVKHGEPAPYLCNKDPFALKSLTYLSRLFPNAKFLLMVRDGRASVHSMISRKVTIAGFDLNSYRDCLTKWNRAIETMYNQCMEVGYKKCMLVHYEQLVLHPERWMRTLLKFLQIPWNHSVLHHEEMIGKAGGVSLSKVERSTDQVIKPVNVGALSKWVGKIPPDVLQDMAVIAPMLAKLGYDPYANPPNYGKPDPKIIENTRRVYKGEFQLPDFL
Experimental: (§1) Compounds were initially screened at 400 μM in the presence 20 nM HS2ST and 0.1 μM TPST1 respectively.
Fig. 4 Summary of enzymatic inhibition assays against HS2ST and TPST1. (A) Enzymatic analysis of HS2ST1 inhibition by a panel of PAP- and PAPS-mimetic compounds. […] HS2ST sulfotransferase activity was assayed using a fluorescent hexasaccharide substrate (2 μM) and normalised to DMSO (4% v/v) or buffer control. Data shown is mean and SD of 4 repeat experiments. (B) Full dose–response curves for selected compounds. […] HS2ST activity calculated as previously described. Data from two independent experiments are combined. (C) Enzymatic analysis of TPST1 inhibition by a panel of PAP- and PAPS-mimetic compounds. […] TPST1 activity was measured using fluorescently-labelled CC4-tide (2 μM) and normalised to DMSO (4% v/v) or buffer control. (D) Full dose–response curves for selected compounds. […] TPST1 activity was measured using CC4-tide and normalised to DMSO or buffer controls as previously described. The data shown is from duplicate experiments. […]
TPST1 peptide substrate (CC4-tide, 5-FAM-EDFED YEFDG-CONH2) was synthesised using solid-phase Fmoc chemistry (Pepceuticals, Leicester, UK). All standard laboratory biochemicals, were purchased from Sigma, and were of the highest analytical quality.
(§2) 5'-phosphosulfate, lithium salt hydrate, PAP (adenosine 3',5'-diphosphate, disodium salt), CoA (coenzymeA, sodium salt), ATP (adenosine 5’-triphosphate, disodium salt hydrate) were all purchased from Sigma and stored at -80 °C to minimise degradation.
Recombinant Protein Production and SDS-PAGE
Human TPST1 (residues Lys43-Leu360) enzyme was purified as a recombinant protein containing an N-terminal 6xHis tag as previously described. […]
(§3) Microfluidics-Based Sulfation Assay
(§4) Non-radioactive microfluidic mobility shift peptide and carbohydrate sulfation assays were performed in solution with a 12-sipper chip coated with SR8 reagent and a Perkin Elmer EZ Reader II system 8 using an EDTA-based separation buffer and real-time kinetic evaluation of substrate sulfation. Pressure and voltage settings were adjusted manually to afford optimal separation of the sulfated product and non-sulfated substrate, with a sample (sip) volume of 20 nL, and total assay tim es appropriate for the experiment. The fluorophore tagged TPST1 peptide substrate and HS2ST1 glycan substrate where detected by the EZ Reader via LED-induced fluorescence.
(§5) Individual sulfation assays were assembled in a 384 well plate in a volume of 80 µL in the presence of […]
(§6) and 5 mM MgCl2. The degree of substrate sulfation was directly calculated using EZ Reader software by measuring the sulfo-product:non-sulfated substrate ratio at each time-point. The act ivity of the sulfotransferase enzymes in the presence of biochemicals and small molecule inhibitors was quantified in ‘kinetic mode’ by monitoring the amount of sulfated product generated over the assay time, relative to control assay with no additional inhibitor molecule (DMSO or buffer control). Data was normalized with respect to these control assays, with sulfate incorporation into the substr ate limited to ~ 20% to prevent depletion of PAPS and to ensure assay linearity. K m and IC50 values were determined by non-linear regression analysis with GraphPad Prism software. […]

HS2ST = biological target: T2, HS2ST (Gallus gallus, UniProt Q76KB1); assay: Microfluidic mobility shift sulfation assay, HS2ST (fluorescent hexasaccharide substrate); assay type: biochemical, chicken; details: for IC50: read-out: IC50 against HS2ST
T2 construct: made in house; host or cells: E. coli Rosetta-gami (DE3)
T2 sequence (Q76KB1 1-356): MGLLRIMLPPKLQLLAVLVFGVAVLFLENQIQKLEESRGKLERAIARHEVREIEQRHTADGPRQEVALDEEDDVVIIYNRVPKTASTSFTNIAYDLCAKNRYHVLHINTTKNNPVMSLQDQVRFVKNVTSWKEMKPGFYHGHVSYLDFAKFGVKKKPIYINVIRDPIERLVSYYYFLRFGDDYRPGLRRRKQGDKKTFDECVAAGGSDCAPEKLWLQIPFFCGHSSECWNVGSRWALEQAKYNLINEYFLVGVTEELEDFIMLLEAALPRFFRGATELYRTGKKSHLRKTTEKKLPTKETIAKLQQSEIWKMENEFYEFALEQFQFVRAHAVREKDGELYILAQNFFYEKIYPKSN
Experimental: as §1
Fig. 4 Summary of enzymatic inhibition assays against HS2ST and TPST1. (A) Enzymatic analysis of HS2ST1 inhibition by a panel of PAP- and PAPS-mimetic compounds. […] HS2ST sulfotransferase activity was assayed using a fluorescent hexasaccharide substrate (2 μM) and normalised to DMSO (4% v/v) or buffer control. Data shown is mean and SD of 4 repeat experiments. (B) Full dose–response curves for selected compounds. […] HS2ST activity calculated as previously described. Data from two independent experiments are combined. (C) Enzymatic analysis of TPST1 inhibition by a panel of PAP- and PAPS-mimetic compounds. […] TPST1 activity was measured using fluorescently-labelled CC4-tide (2 μM) and normalised to DMSO (4% v/v) or buffer control. (D) Full dose–response curves for selected compounds. […] TPST1 activity was measured using CC4-tide and normalised to DMSO or buffer controls as previously described. The data shown is from duplicate experiments.
N-sulfated, fluorescein-tagged HS2ST1 hexasaccharide glycan substrate (GlcNS-GlcA- GlcNS-IdoA-GlcNS-GlcA-fluorescein, where S=sulfation) containing L-IdoA at the third residue from the reducing end (to which a linker and the fluorophore were conjugated) was purchased from GLY CAN therapeutics. TPST1 peptide substrate (CC4-tide, 5-FAM-EDFED YEFDG-CONH2) was synthesised using solid-phase Fmoc chemistry (Pepceuticals, Leicester, UK). All standard laboratory biochemicals, were purchased from Sigma, and were of the highest analytical quality.
as §2
Recombinant Protein Production and SDS-PAGE […]
as §3, §4, §5, §6

| IC50 (TPST1) [µM] | IC50 (HS2ST) [µM] | inhibitory activity against TPST1 (TPST1; compound 400 μM, TPST1 0.1 μM, PAPS 5 μM) | inhibitory activity against HS2ST (HS2ST; compound 400 μM, HS2ST 20 nM, PAPS 5 μM) | SMILES |
| --- | --- | --- | --- | --- |
| 3.6 | 12.7 | – | – | Nc1ncnc2c1ncn2[C@H]1C[C@H](OP(=O)(O)O)[C@@H](COP(=O)(O)O)O1 [2′-deoxy-PAP] |
| – | – | inactive | inactive | Nc1ncnc2c1ncn2[C@H]1C[C@H](O)[C@@H](Cn2cc(P(=O)(O)O)nn2)O1 [Compound 11] |
| 100 to 300 | 100 to 300 | – | – | Nc1ncnc2c1ncn2[C@H]1C[C@H](OP(=O)(O)O)[C@@H](Cn2cc(P(=O)(O)O)nn2)O1 [Compound 12] |
| 100 to 300 | 100 to 300 | – | – | Nc1ncnc2c1ncn2[C@H]1C[C@H](O)[C@@H](Cn2cc(P(=O)(O)OCc3ccccc3)nn2)O1 [Compound 13] |
